According to patent US20250324983A1, “METHOD AND APPARATUS FOR CONTROLLING ARTHROPODS USING MASSOIA ESSENTIAL OIL AND RELATED PYRONES” (The United States of America, as Represented by the …, priority 2024, published 2025):

Legend:
Aedes aegypti = experiment: Spatial repellency, high-throughput glass tube assay; assay type: in vivo; conditions: concentration repelling 50% of adult female Aedes aegypti, treated filter paper in glass tube
Description: Adult female non-bloodfed Aedes aegypti that were 2-10 days post-eclosion were cold-anesthetized by placing on ice for several minutes. Each replicate consisted of 16 anesthetized females transferred to a glass tube (length 12.5 cm, outer diameter 2.5 cm) (TriKinetics Inc., Waltham, MA). Glass tubes were then enclosed on each end by netting held in place with blue caps removed from 50-mL polypropylene centrifuge tubes (Falcon™; Corning Inc., Corning, NY). Mosquitoes were allowed at least 15 min to recover from cold anesthetization. Round filter papers (diameter 2.5 cm) (Sigma-Aldrich Chemical Co., CITY, ST) were treated with 50 μL solution of compound dissolved in acetone at different concentrations. Treated filter papers were allowed to air dry for 10 min to allow for acetone evaporation, at which point filter papers were placed inside the cut ends of 50-mL polypropylene centrifuge tubes. The end caps with treated filter paper were then placed on the ends of the glass tubes, replacing the blue caps, with the netting left to prevent mosquito escape.
Glass tube bioassay setups were placed on a contrasting white background to facilitate observing and counting mosquitoes with a black line drawn to mark the center of the tube length. Control bioassays were set up with filter papers treated with 50 μL of acetone. Repellency was calculated as a repellency ratio using the formula: number of mosquitoes on the experimental treatment side/16, where a value of 0 is equal to full repellency and a value of 0.5 indicates no effect—i.e., an even distribution of mosquitoes on either side the tube midline. Data were recorded at 15 min, 30 min, and 1 hr for repellency and knockdown, as well as at 24 hr for mortality. […] Each concentration was replicated at least three times. After use, glass tubes were decontaminated by washing in soapy water and rinsed with acetone and distilled water. Treatment caps and nettings were washed using soapy water and rinsed with distilled water. Data were analyzed using a 4-parameter logistic regression in GraphPad Prism 9. The effective concentration that repelled 50% of mosquitoes (EC50) was used to compare different treatments.

Aedes albopictus = conditions: compounds identified from massoia and nutmeg essential oils; cited from earlier work
[1] = tested on: mosquitoes or biting flies; experiment: Contact repellency, cloth patch test (minimum effective dose); assay type: in vivo; conditions: minimum effective dose on cloth
Description: The cloth patch test can be used to assess the effective repellency duration for a particular application rate of a chemical to cloth being worn on the arm of a human subject. The test allows candidate repellents to be tested without contacting the skin. The candidate substance is dissolved initially in a suitable solvent which is typically acetone; however, can be extended to ethanol or DMSO (dimethyl sulfoxide). The typical protocol for a limited quantity of substance involves dissolving up to 75 mg of the candidate repellent into 1 mL of an appropriate volatile solvent, such as acetone or ethanol, in a 2-dram vial. The choice of solvent depends upon the miscibility characteristics of the candidate repellent. A 50 cm^2 (5 cm×10 cm) clean, untreated piece of muslin cloth is rolled, placed in the vial and sealed therein to allow the cloth to saturate completely with the solution. […] Prior to the bioassay, the saturated cloth is removed and each end of the cloth is attached to a 5 cm×2.5 cm piece of cardstock paper. To each card, masking tape is attached. The card/cloth assembly is then allowed to dry for 15 min hanging from a rack by the masking tape. This time is adequate to allow complete evaporation of the solvent from the cloth.
To prepare the arm for testing, the volunteer first places a latex or nitrile glove (extended length beyond the wrist) over the hand and arm and then pulls a nylon hose stocking over the hand and arm up to a point that is past the elbow. This glove prevents mosquitoes from biting through to the hand, wrist, and part of the arm where the glove provides protection. A thick plastic sleeve with a Velcro® strip is then fastened around the arm. There is a 4 cm×8 cm window opening cut into the sleeve. Volunteers may elect to use either of the two designs of this sleeve: one has a window opening with a screen mesh, the other is completely open. The cloth card frame is then taped onto the forearm at a position overlapping the window opening of the sleeve. This allows attractive human odors to escape through the opened area of the sleeve and this small window is the only area accessible for bites. Once the cloth/card assembly is on the arm, the arm is placed inside an insect cage with mosquitoes or biting flies for one minute. Typically, the test involves 500 biting flies or mosquitoes, but can be performed at a variety of biting pressures from 200-2000 individuals, but is rarely ever performed at a pressure of greater than 2000 in a cage. […]
If a sufficient quantity of the candidate repellent is available, the minimum effective dose (MED) can be determined. […] In these cases, stoichiometric equivalents, i.e., micromolar quantities, are applied to the cloth and tested as described above. […]

[2] = tested on: Aedes aegypti mosquitoes (susceptible—Orlando strain); experiment: Topical application, knockdown and mortality; conditions: in vivo
Description: Aedes aegypti mosquitoes (susceptible—Orlando strain) were reared using standard protocols at the United States Department of Agriculture, Agricultural Research Service Center for Medical, Agricultural, and Veterinary Entomology (CMAVE) in Gainesville, FL. Mosquitoes raised from pupae were aspirated from colony cages and anesthetized on ice. Mosquitoes were then treated with 0.2 μL of variable concentrations of insecticidal active ingredients using a repeating microapplicator (Hamilton Co., Reno, NV). Ten mosquitoes were used per concentration and at least three different biological cohorts were used in the analysis. Knockdown (defined as inability to fly or orient in the upright direction) was recorded at 1 hr or other time points post application (depending on the experiment), whereas mortality (defined as no movement-ataxia) was recorded at 24 hr. Concentrations that produced 10-90% mortality at 24 hr post exposure were used in the analysis to calculate the lethal dose required to kill 50% of the population (LD50). SAS 9.4 was used to calculate the LD50 values using a PROC PROBIT model with Abbott's correction to account for any control mortality.

[3] = tested on: central nervous system (CNS) of third-fourth-instar Aedes aegypti larvae; experiment: Central nervous system recording of mosquito larvae; conditions: applied at 100 μM
Description: Extracellular recordings were performed on the central nervous system (CNS) of third-fourth-instar Aedes aegypti larvae as previously described in Norris et al., “Recording central neurophysiological output from mosquito larvae for neuropharmacological and insecticide resistance studies”, Journal of Insect Physiology, 135 (2021) 104319. Mosquito larvae were pinned down and dissected to expose the descending ventral nerve cord in a saline bath (157 mM NaCl, 3 mM KCl, 2 mM CaCl2), 4 mM HEPES). The ventral nerve cord was severed using a small forceps between the second and third abdominal ganglion. Descending electrical activity was monitored by drawing emanating nerve fibers from the ventral nerve cord into a suction electrode connected to an AC/DC differential amplifier (Model 3000, A-M Systems, Inc., Carlsborg, WA). Signals were subjected to window amplitude discrimination and converted into a rate plot, expressed in Hertz (Hz), using LabChart 7 Pro software (AD Instruments Inc. Colorado Springs, CO). Noise (60 Hz) was eliminated using a Hum Bug (A-M Systems, Sequim, WA,).
Electrical activity was monitored for approximately 5-10 min to establish a baseline CNS firing rate before test solutions were added to the bath in DMSO at 1 μL of solution diluted into 999 μL of saline. All concentrations of active ingredients were expressed as their final concentrations in saline. […]

EC50 (spatial repellency) (Aedes aegypti)	Compound	larvicidal activity (in words) (Aedes albopictus)	other results
77.11 μg/cm^2	CCCCCCCC1CCCC(=O)O1 (centres unmarked) [5-dodecanolide]		
	CCCCCCC[C@@H]1CC=CC(=O)O1 [C12 massoia lactone, C-12-massoia lactone]	strong larvicidal activity	
	CCN(CC)C(=O)c1cccc(C)c1 [DEET, N,N-Diethyl-meta-toluamide]		MED [1]: 0.009 ± 0.003 ^B mg/cm^2
91.8 μg/cm^2	CCCCN(CCC(=O)OCC)C(C)=O [IR3535, ethyl butylacetylaminopropionate, reference compound]		
	O=C(OCc1ccccc1)c1ccccc1 [benzyl benzoate]	strong larvicidal activity	
	O=C(OCc1ccccc1)c1ccccc1O [benzyl salicylate]	strong larvicidal activity	
	CCC(C)OC(=O)N1CCCCC1CCO (centres unmarked) [icaridin]		MED [1]: 0.015 ± 0.004 ^B mg/cm^2
5.9 μg/cm^2	CCCCCC1CC=CC(=O)O1 (centres unmarked) [massoia lactone, 2H-pyran-2-one, 5,6-dihydro-6-pentyl-]	strong larvicidal activity	MED [1]: 0.007 ± 0.002 ^B mg/cm^2; Slope (LD50) [2]: 8.3; nerve block (CNS firing) [3]: some nerve block
	CC1(C)C(C=C(Cl)Cl)C1C(=O)OCc1cccc(Oc2ccccc2)c1 (centres unmarked) [permethrin]		MED [1]: 0.100 ± 0.022 ^A mg/cm^2
	C=C1CCC2(C(C)C)CC12 (centres unmarked) [sabinene]	strong larvicidal activity	
	CC1=CCC(=C(C)C)CC1 [terpinolene]	strong larvicidal activity	
6.1 μg/cm^2	CCCCCc1cccc(=O)o1 [α-amyl-pyrone]		
108.5 μg/cm^2	C/C=C/C(=O)C1C(C)C=CCC1(C)C (centres unmarked) [δ-damascone]		
60.5 μg/cm^2	jasmolactone		
29.5 μg/cm^2	δ-undecalactone		

Compound	EC50 (spatial repellency) (Aedes aegypti)	larvicidal activity (in words) (Aedes albopictus)	other results
CCCCCCCC1CCC(=O)O1 (centres unmarked) [γ-undecalactone]	18.32 μg/cm^2		
